From US10238743B2 (Merck Sharp & Dohme Corp., priority 2014, dated 2019)

Tests used:
[1] = target: purified human autoBACE-2 (Homo sapiens (Human), UniProt Q9Y5Z0); experiment: BACE-2 Assay (BACE-HTRF assay); assay type: biochemical; details: Ki calculated from IC50 using the Cheng-Prusoff equation; QSY7-EISEVNLDAEFC-Eu-amide substrate, pH 5.0
Method: Inhibitor IC50s at purified human autoBACE-2 are determined in a time-resolved endpoint proteolysis assay that measures hydrolysis of the QSY7-[…]-Eu-amide FRET peptide substrate (BACE-HTRF assay). […] DMSO is present at 5% final concentration in the assay. Following laser excitation of sample wells at 320 nm, the fluorescence signal at 620 nm is collected for 400 ms following a 50 μs delay on a RUBYstar HTRF plate reader (BMG Labtechnologies). Raw RFU data is normalized to maximum (1.0 nM BACE/DMSO) and minimum (no enzyme/DMSO) RFU values. […] The Ki values are calculated from the IC50 using the Cheng-Prusoff equation.

[2] = target: soluble human BACE1 catalytic domain (Homo sapiens (Human), UniProt P56817); experiment: BACE1 HTRF FRET Assay; assay type: biochemical; details: Ki calculated from IC50 using the Cheng-Prusoff equation; QSY7-APPswe-Eu substrate, pH 5.0; read-out: BACE-1 Ki
soluble human BACE1 catalytic domain, sequence (P56817 75-416): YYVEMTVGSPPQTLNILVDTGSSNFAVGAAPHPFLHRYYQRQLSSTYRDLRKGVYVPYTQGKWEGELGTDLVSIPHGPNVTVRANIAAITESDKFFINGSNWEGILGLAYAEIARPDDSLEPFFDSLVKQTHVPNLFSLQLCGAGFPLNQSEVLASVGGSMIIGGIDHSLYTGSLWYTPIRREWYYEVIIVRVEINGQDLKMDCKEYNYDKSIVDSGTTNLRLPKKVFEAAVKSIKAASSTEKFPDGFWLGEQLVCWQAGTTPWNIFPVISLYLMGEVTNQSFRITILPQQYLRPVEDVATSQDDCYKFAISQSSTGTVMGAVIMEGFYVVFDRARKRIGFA
Excerpt: Na^+-Acetate pH 5.0; 1% Brij-35; Glycerol; Dimethyl Sulfoxide (DMSO); Recombinant human soluble BACE1 catalytic domain (>95% pure); APP Swedish mutant peptide substrate (QSY7-APP^swe-Eu): QSY7-EISEVNLDAEFC-Europium-amide.
A homogeneous time-resolved FRET assay can be used to determine IC50 values for inhibitors of the soluble human BACE1 catalytic domain. This assay monitors the increase of 620 nm fluorescence that resulted from BACE1 cleavage of an APPswedish APP^swe mutant peptide FRET substrate (QSY7-EISEVNLDAEFC-Europium-amide). This substrate contains an N-terminal QSY7 moiety that serves as a quencher of the C-terminal Europium fluorophore (620 nm Em). In the absence of enzyme activity, 620 nm fluorescence is low in the assay and increased linearly over 3 hours in the presence of uninhibited BACE1 enzyme. Inhibition of BACE1 cleavage of the QSY7-APP^swe-Eu substrate by inhibitors is manifested as a suppression of 620 nm fluorescence.
Varying concentrations of inhibitors at 3× the final desired concentration in a volume of 10 ul are preincubated with purified human BACE1 catalytic domain (3 nM in 10 μl) for 30 minutes at 30° C. in reaction buffer containing 20 mM Na-Acetate pH 5.0, 10% glycerol, 0.1% Brij-35 and 7.5% DSMO. Reactions are initiated by addition of 10 μl of 600 nM QSY7-APP^swe-Eu substrate (200 nM final) to give a final reaction volume of 30 μl in a 384 well Nunc HTRF plate. The reactions are incubated at 30° C. for 1.5 hours. The 620 nm fluorescence is then read on a Rubystar HTRF plate reader (BMG Labtechnologies) using a 50 millisecond delay followed by a 400 millisecond acquisition time window. Inhibitor IC50 values are derived from non-linear regression analysis of concentration response curves. Ki values are then calculated from IC50 values using the Cheng-Prusoff equation using a previously determined […] of 8 μM for the QSY7-APP^swe-Eu substrate at BACE1.

purified human autoBACE-2, sequence (Q9Y5Z0 63-473 limits assumed): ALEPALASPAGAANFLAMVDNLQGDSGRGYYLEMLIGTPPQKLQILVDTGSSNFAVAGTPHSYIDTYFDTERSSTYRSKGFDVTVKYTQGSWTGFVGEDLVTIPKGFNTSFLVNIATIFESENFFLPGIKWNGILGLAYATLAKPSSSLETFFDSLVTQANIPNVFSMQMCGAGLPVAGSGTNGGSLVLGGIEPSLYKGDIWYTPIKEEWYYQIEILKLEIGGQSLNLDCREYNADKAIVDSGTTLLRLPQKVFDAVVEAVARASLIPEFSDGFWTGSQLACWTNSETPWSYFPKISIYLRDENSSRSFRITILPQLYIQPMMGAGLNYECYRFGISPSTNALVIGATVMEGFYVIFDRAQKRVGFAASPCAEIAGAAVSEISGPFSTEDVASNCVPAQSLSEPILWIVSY

Ki [1] [µM] | Ki [2] [µM] | Compound
0.251 | 0.168 | Cc1cnc(C(=O)Nc2ccc3c(c2)[C@@]2(C)NC(=N)N(C)S(=O)(=O)[C@H]2CCC3)cn1 [Example 24, N-((4aS,11bR)-2-imino-3,11b-dimethyl-4,4-dioxido-1,2,3,4a,5,6,7,11b-octahydrobenzo[6,7]cyclohepta[1,2-e][1,2,4]thiadiazin-10-yl)-5-methylpyrazine-2-carboxamide]
0.005 | 0.007 | CN1C(=N)N[C@]2(C)c3cc(NC(=O)c4ncc(Cl)cc4F)ccc3CCC[C@@H]2S1(=O)=O [Example 25, 5-chloro-3-fluoro-N-((4aS,11bR)-2-imino-3,11b-dimethyl-4,4-dioxido-1,2,3,4a,5,6,7,11b-octahydrobenzo[6,7]cyclohepta[1,2-e][1,2,4]thiadiazin-10-yl)picolinamide]
0.01 | 0.018 | CN1C(=N)N[C@]2(C)c3cc(NC(=O)c4ncc(F)cc4F)ccc3CCC[C@@H]2S1(=O)=O [Example 26, 3,5-difluoro-N-((4aS,11bR)-2-imino-3,11b-dimethyl-4,4-dioxido-1,2,3,4a,5,6,7,11b-octahydrobenzo[6,7]cyclohepta[1,2-e][1,2,4]thiadiazin-10-yl)picolinamide]
0.01 | 0.018 | COc1cc(Br)cnc1C(=O)Nc1ccc2c(c1)[C@@]1(C)NC(=N)N(C)S(=O)(=O)[C@H]1CCC2 [Example 27, 5-bromo-N-((4aS,11bR)-2-imino-3,11b-dimethyl-4,4-dioxido-1,2,3,4a,5,6,7,11b-octahydrobenzo[6,7]cyclohepta[1,2-e][1,2,4]thiadiazin-10-yl)-3-methoxypicolinamide]
0.007 | 0.018 | CN1C(=N)N[C@]2(C)c3cc(NC(=O)c4ccc(F)cn4)ccc3CCC[C@@H]2S1(=O)=O [Example 28, 5-fluoro-N-((4aS,11bR)-2-imino-3,11b-dimethyl-4,4-dioxido-1,2,3,4a,5,6,7,11b-octahydrobenzo[6,7]cyclohepta[1,2-e][1,2,4]thiadiazin-10-yl)picolinamide]
0.01 | 0.019 | Cc1cc(F)cnc1C(=O)Nc1ccc2c(c1)[C@@]1(C)NC(=N)N(C)S(=O)(=O)[C@H]1CCC2 [Example 31, 5-fluoro-N-((4aS,11bR)-2-imino-3,11b-dimethyl-4,4-dioxido-1,2,3,4a,5,6,7,11b-octahydrobenzo[6,7]cyclohepta[1,2-e][1,2,4]thiadiazin-10-yl)-3-methylpicolinamide]
0.034 | 0.027 | COc1cnc(C(=O)Nc2ccc3c(c2)[C@@]2(C)NC(=N)N(C)S(=O)(=O)[C@H]2CCC3)c(C)c1 [Example 32, N-((4aS,11bR)-2-imino-3,11b-dimethyl-4,4-dioxido-1,2,3,4a,5,6,7,11b-octahydrobenzo[6,7]cyclohepta[1,2-e][1,2,4]thiadiazin-10-yl)-5-methoxy-3-methylpicolinamide]
0.086 | 0.048 | COc1cnc(C(=O)Nc2ccc3c(c2)[C@@]2(C)NC(=N)N(C)S(=O)(=O)[C@H]2CCC3)c(C)n1 [Example 33]
0.01 | 0.019 | Cc1cc(C#N)cnc1C(=O)Nc1ccc2c(c1)[C@@]1(C)NC(=N)N(C)S(=O)(=O)[C@H]1CCC2 [Example 35, 5-cyano-N-((4aS,11bR)-2-imino-3,11b-dimethyl-4,4-dioxido-1,2,3,4a,5,6,7,11b-octahydrobenzo[6,7]cyclohepta[1,2-e][1,2,4]thiadiazin-10-yl)-3-methylpicolinamide]
0.096 | 0.159 | CN1C(=N)N[C@]2(C)c3cc(NC(=O)c4ccc(F)cn4)ccc3CCC[C@H]2S1(=O)=O [Example 37, 5-fluoro-N-((4aR,11bR)-2-imino-3,11b-dimethyl-4,4-dioxido-1,2,3,4a,5,6,7,11b-octahydrobenzo[6,7]cyclohepta[1,2-e][1,2,4]thiadiazin-10-yl)picolinamide]
2.71 | 1.39 | Cc1cnc(C(=O)Nc2ccc3c(c2)[C@@]2(C)NC(=N)N(C)S(=O)(=O)[C@@H]2CCC3)cn1 [Example 40, N-((4aR,11bR)-2-imino-3,11b-dimethyl-4,4-dioxido-1,2,3,4a,5,6,7,11b-octahydrobenzo[6,7]cyclohepta[1,2-e][1,2,4]thiadiazin-10-yl)-5-methylpyrazine-2-carboxamide]
0.135 | 0.06 | COc1cnc2c(Nc3ccc4c(c3)[C@@]3(C)NC(=N)N(C)S(=O)(=O)[C@H]3CCO4)nccc2n1 [Example 41, (4aS,11bR)-2-imino-10-((2-methoxypyrido[3,4-b]pyrazin-5-yl)amino)-3,11b-dimethyl-2,3,4a,5,6,11b-hexahydro-1H-benzo[2,3]oxepino[4,5-e][1,2,4]-thiadiazine 4,4-dioxide]
1.79 | 0.412 | COc1cnc2c(Nc3ccc4c(c3)[C@@]3(C)NC(=N)N(C)S(=O)(=O)[C@H]3CCO4)ccnc2c1 [Example 42, (4aS,11bR)-2-imino-10-((7-methoxy-1,5-naphthyridin-4-yl)amino)-3,11b-dimethyl-2,3,4a,5,6,11b-hexahydro-1H-benzo[2,3]oxepino[4,5-e][1,2,4]-thiadiazine 4,4-dioxide]
0.148 | 0.057 | COc1cnc2c(Nc3ccc4c(c3)[C@@]3(C)NC(=N)N(C)S(=O)(=O)[C@H]3CCO4)nccc2c1 [Example 43, (4aS,11bR)-2-imino-10-((3-methoxy-1,7-naphthyridin-8-yl)amino)-3,11b-dimethyl-2,3,4a,5,6,11b-hexahydro-1H-benzo[2,3]oxepino[4,5-e][1,2,4]-thiadiazine 4,4-dioxide]

Compound | Ki [1] [µM] | Ki [2] [µM]
CN1C(=N)N[C@]2(C)c3cc(NC(=O)c4ccc(OC(F)F)cn4)ccc3CCC[C@@H]2S1(=O)=O [Example 22, 5-(difluoromethoxy)-N-((4aS,11bR)-2-imino-3,11b-dimethyl-4,4-dioxido-1,2,3,4a,5,6,7,11b-octahydrobenzo[6,7]cyclohepta[1,2-e][1,2,4]thiadiazin-10-yl)picolinamide] | 0.09 | 0.01
CN1C(=N)N[C@]2(C)c3cc(NC(=O)c4ccc(Cl)cn4)ccc3CCC[C@@H]2S1(=O)=O [Example 23, 5-chloro-N-((4aS,11bR)-2-imino-3,11b-dimethyl-4,4-dioxido-1,2,3,4a,5,6,7,11b-octahydrobenzo[6,7]cyclohepta[1,2-e][1,2,4]thiadiazin-10-yl)picolinamide] | 0.007 | 0.007
CN1C(=N)N[C@]2(C)c3cc(NC(=O)c4ccc(OC(F)(F)F)cn4)ccc3CCC[C@@H]2S1(=O)=O [Example 29, N-((4aS,11bR)-2-imino-3,11b-dimethyl-4,4-dioxido-1,2,3,4a,5,6,7,11b-octahydrobenzo[6,7]cyclohepta[1,2-e][1,2,4]thiadiazin-10-yl)-5-(trifluoromethoxy)picolinamide] | 0.144 | 0.014
CN1C(=N)N[C@]2(C)c3cc(NC(=O)c4ncc(C(F)(F)F)cc4Cl)ccc3CCC[C@@H]2S1(=O)=O [Example 30, 3-chloro-N-((4aS,11bR)-2-imino-3,11b-dimethyl-4,4-dioxido-1,2,3,4a,5,6,7,11b-octahydrobenzo[6,7]cyclohepta[1,2-e][1,2,4]thiadiazin-10-yl)-5-(trifluoromethyl)picolinamide] | 0.082 | 0.01
COc1cnc(C(=O)Nc2ccc3c(c2)[C@@]2(C)NC(=N)N(C)S(=O)(=O)[C@H]2CCC3)cn1 [Example 34] | 0.052 | 0.017
CN1C(=N)N[C@]2(C)c3cc(NC(=O)c4ccc(C#N)cn4)ccc3CCC[C@@H]2S1(=O)=O [Example 36] | 0.025 | 0.004
CN1C(=N)N[C@]2(C)c3cc(NC(=O)c4ccc(OC(F)F)cn4)ccc3CCC[C@H]2S1(=O)=O [Example 38, 5-(difluoromethoxy)-N-((4aR,11bR)-2-imino-3,11b-dimethyl-4,4-dioxido-1,2,3,4a,5,6,7,11b-octahydrobenzo[6,7]cyclohepta[1,2-e][1,2,4]thiadiazin-10-yl)picolinamide] | 0.857 | 0.08
CN1C(=N)N[C@]2(C)c3cc(NC(=O)c4ccc(C#N)cn4)ccc3CCC[C@H]2S1(=O)=O [Example 39] | 0.315 | 0.06
